According to patent US10562863B2, “Heterobifunctional linker” (THE GOVERNORS OF THE UNIVERSITY OF ALBERTA, priority 2016, dated 2020):

Molecular target: T1, branched-chain amino acid-binding protein LivF (Escherichia coli, UniProt P0AD96)
T1 construct: inferred from the pET15b vector and Ni-NTA purification; made in house; host or cells: E. coli BL21
Experiment: Competitive lateral flow assay, LivF test band
Design: species or system E. coli
Conditions: free Leu 0.5 and 2 mg/ml; 1M urea; citrate 2 mg/ml
Description: We generated a useful metabolite sensor using a combination of a lateral flow assay (LFA), a metabolite-L1-AuNP conjugate (Leucine) and metabolite-specific protein. […] In our assay, the branched-chain amino acid-binding protein LivF35 was loaded onto nitrocellulose strips as the detection protein (“Test band”) and as the “Control band” the glutamate/aspartate binding protein Gltl36 was used, since the gold nanoparticles are stabilized with glutamate on their surface and that can be detected by Gltl as flow control. Leucine-decorated gold nanoparticles were loaded at the end of the strip in solution, with or without competing free leucine and the flow assay was performed.
To prepare the LFA strips, lug of each protein (from a 0.5 ug/ul solution in 50 mM phosphate buffer, pH 7.5) was loaded onto FF80 nitrocellulose strips as a 0.5 cm line. 20 ul of a suspension of metabolite-coated AuNPs (3 mg/mL) was loaded onto the end of the membrane strips and allowed to flow through via capillary action. Bands showing the captured gold nanoparticles were documented with an electronic flatbed scanner (Canon Canoscan 5600).

T1 sequence (P0AD96 24-367): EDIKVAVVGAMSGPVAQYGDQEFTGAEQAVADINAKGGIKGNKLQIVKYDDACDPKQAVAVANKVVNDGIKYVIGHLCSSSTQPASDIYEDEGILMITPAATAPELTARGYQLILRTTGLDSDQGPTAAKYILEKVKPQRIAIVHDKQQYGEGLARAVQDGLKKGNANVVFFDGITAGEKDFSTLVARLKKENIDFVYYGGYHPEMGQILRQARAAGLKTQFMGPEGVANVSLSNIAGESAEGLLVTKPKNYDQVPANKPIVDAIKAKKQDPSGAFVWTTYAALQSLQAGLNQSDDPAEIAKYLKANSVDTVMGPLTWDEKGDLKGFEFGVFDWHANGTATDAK

Row | Structure (SMILES) | Effect of free metabolite on LivF detection of leucine-coated AuNP
1 | O=C(O)CC(O)(CC(=O)O)C(=O)O [citrate] | not hampered
2 | CC(C)C[C@H](N)C(=O)O [free leucine, leucine] | abrogated
3 | NC(N)=O [urea] | not hampered
